Reference: patent publication US11458433B2, “Absorbent and process for selectively removing hydrogen sulfide” (BASF SE, priority 2017, dated 2022)

Tests used:
Format in all cases: physicochemical
[1] = Volatility of amines in 30% by weight aqueous solutions (condensate analysis); conditions: 30 wt.-% amine + 70 wt.-% H2O, 200 mL, 50° C., 30 L (STP)/h N2, 8 h; average of three experiments
Procedure: The volatility of several amines in 30% by weight aqueous solutions was examined.
The glass cylinder was regulated to 50° C., and 200 mL of the absorbent were introduced in each case. Over an experimental duration of 8 h, 30 L (STP)/h of N2 were passed through the absorbent at ambient pressure.
The experiments were repeated three times.

[2] = Phase separation: critical solution temperature in miscibility unit; conditions: 36 wt.-% aqueous solution; measurable up to 140° C.
Procedure: To determine the critical solution temperature, a miscibility unit was used. This unit allows the measurement of the temperature at which phase separation occurs (“critical solution temperature”).
The miscibility unit comprised a sight glass vessel equipped with a pressure gauge and a thermocouple. A heater was used to supply heat to the vessel. Measurements were possible up to a temperature of 140° C. The possible phase separation could be visually observed via the sight glass. In the following table, the measured critical solution temperatures are shown for different aqueous amine mixtures.

[3] = pKA determination by titration with aqueous hydrochloric acid; conditions: aqueous amine solution; 20° C.; 0.005 mol/L amine in water titrated with 0.1 mol/L HCl
Procedure: The pKa values of MDEA and TBAPD were determined by means of titration. An aqueous solution with an amine concentration of 0.005 mol/L of amine was used and titrated with aqueous hydrochloric acid (0.1 mol/L) at 20° C.

Compound | Amine in condensate [1] | Condensate [1] | Water in condensate [1] | pKa [3] | Critical Solution Temperature [2]
COCCOCCOCCNC(C)(C)C [M3ETB, (2-(2-(2-tert-butylaminoethoxy)ethoxy)ethyl) methyl ether] | 0.7 wt.-% | 30.1 mL | 99.2 wt.-% | – | 107° ° C.
tert-butylaminoethylmorpholine [TBAEM] | 1.6 wt.-% | 34.8 mL | 98.0 wt.-% | – | –
tert-butylaminoethoxyethylmorpholine [TBAEEM] | 0.2 wt.-% | 30.5 mL | 99.6 wt.-% | – | 131° ° C.

Now from value to compound, other results behind:

Amine in condensate [1] | Condensate [1] | Water in condensate [1] | pKa [3] | Compound | Critical Solution Temperature [2]
0.2 wt.-% | 28.8 mL | 99.5 wt.-% | 9.6 | CC(C)(C)NCCN1CCCC1=O [TBAEPY, 1-[2-(tert-butylamino)ethyl]pyrrolidin-2-one] | —** (no phase separation observed at up to 140° C.)
0.7 wt.-% | 30.0 mL | 99.3 wt.-% | – | CC(C)(C)NCCOCCO [TBAEE, 2-(2-tert-butylaminoethoxy)ethanol] | –
